Patent US10548911B2, “Small molecule anti-scarring agents” (UNIVERSITY OF ROCHESTER, priority 2014, dated 2020)
“Also recorded” adds a separate entry of the source.

Key:
[1] = test system: TGFβ-dependent myofibroblast formation in primary human fibroblasts; assay: Myofibroblast formation assay in primary human fibroblasts (morphology, Western blot) for Spectrum hits; type: cell-based
Procedure: Using the lowest effective dose from the secondary screening assay, PPT (5 μM), ASC (1 μM), BTS (1 μM), and AXD (1 μM) were compared to 0.1 μM SNC using primary human fibroblasts (FIG. 13). The myofibroblast formation assay consists of the following protocol: fibroblasts are treated with the aforementioned small molecules and treated with TGFβ (1 ng/ml) for 72 hours. The cells were then either photographed for morphological analysis or collected, lysed and analyzed by Western blot for the myofibroblast markers alpha-smooth muscle actin (αSMA) and calponin. β-tubulin was used as a loading control.
PPT was used at 1 and 5 μM (lanes 3 and 4), BTS was used at 0.1 and 1 μM (lanes 5 and 6), ASC was used at 0.1 and 1 μM (lanes 7 and 8), SNC was used at 100 nM and 1 μM (lanes 9 and 10), and AXD was used at 0.1 and 1 μM (lanes 11 and 12).

[2] = test system: primary human lung fibroblasts; assay: TGFβ-induced myofibroblast formation, αSMA Western blot and cell images, primary human lung fibroblasts; type: cell-based; settings: HCPT 50 nM or 500 nM, TGFβ, listed as SNC
Procedure: Human lung fibroblasts were treated with various concentrations of 10-hydroxycamptothecin (HCPT) (50 nM or 500 nM) and induced to form scar-forming myofibroblasts by treating with TGFβ.

[3] = test system: TGFβ-induced luciferase activity; assay: Spectrum collection small molecule screen with TGFβ-dependent SBE-luciferase HEK293FT reporter cell line; type: cell-based, human; settings: HEK293FT-luc reporter line
Description: The minimal thymidine kinase promoter was amplified by PCR with the following forward and reverse primers, of which the forward primer contained four tandem Smad binding elements (SBE):
Restriction sites in the primers are underlined. The resultant PCR product was TOPO cloned (Invitrogen) and the correct insert was verified by DNA sequencing. The construct was digested with SacI-HindIII and the SBEx4-TK insert was purified and ligated with the pGL4.15 vector (Promega). Clones were verified by restriction digest and then tested for TGFβ responsiveness in transient transfections of 293FT cells. […] Clones were selected by treatment with 200 μg/ml hygromycin. 20 clones were selected and screened for TGFβ-induced luciferase activity. One clone that was robustly responsive was subsequently used in the small molecule screen.
Excessive scarring results from the formation of too many myofibroblasts and the production of too much extracellular matrix material such as collagen. Since TGFβ drives the formation of myofibroblasts in part through activating the Smad pathway, a reporter construct was designed to serve as a measure of TGFβ-induced Smad activity (FIG. 1A). Four tandem Smad binding elements (SBE) were inserted upstream of the minimal thymidine kinase promoter. The SBEx4-TK promoter was inserted into the pGL4.15 vector which contains a destabilized firefly luciferase gene and the hygromycin resistance gene. The pSBEx4-TK-luc-Hygro plasmid was then introduced into HEK293FT cells by lipofection. Stable clones were generated and screened for TGFβ induced luciferase activity. One clone was selected that consistently gave a 15 to 20-fold induction of luciferase activity when cells were treated with TGFβ for 24 hours (FIG. 1B).
To find compounds that inhibit TGFβ activity and thus may be novel anti-scarring compounds, the Spectrum collection of 2,300 small molecules was screened with the cell line. […] Salinomycin, an antibiotic produced from Streptomyces albus is used as coccidiostat agent in animal feed (Knirschova et al., “Multiple regulatory genes in the salinomycin biosynthetic gene cluster of Streptomyces albus CCM 4719,” Folia Microbiologica 52:359-365 (2007), which is hereby incorporated by reference in its entirety). […] Thus, further investigation was made to assess the use of salinomycin as an anti-scarring agent.

[4] = test system: collagen production of TGFβ induced myofibroblasts; assay: Collagen production assay (collagen I slot blot of culture supernatant); type: cell-based, human; settings: 72 hours
Procedure: Cell culture supernatant was collected and transferred (5-20 ul) to PVDF membrane using a slot blot device. The membrane was blocked and probed with a goat anti-collagen antibody (1:5000), washed and incubated with a donkey anti-goat antibody conjugated to HRP. Band intensities were quantified using ImageLab software and values were normalized to vehicle treatments.
TED fibroblasts were treated with TGFβ (1 ng/ml) in the presence or absence of 10-250 nM salinomycin for 72 hours to allow formation of myofibroblasts. After 72 hours, cells were harvested and analyzed by Western blot. As expected, the fibroblasts robustly responded to TGFβ, expressing high levels of αSMA and calponin (FIG. 2A). […] At 50 nM salinomycin, expression of αSMA was reduced by 4-fold over TGFβ treatment alone. Furthermore, at 250 nM salinomycin, αSMA expression was reduced by approximately 16-fold, to levels at or below untreated fibroblasts. […] Another key role of myofibroblasts in scar formation is the production of collagen. Whether salinomycin could block myofibroblast collagen production was assessed. Cells were treated with TGFβ and salinomycin as above and after 72 hours, culture medium was collected and analyzed for collagen levels using a specific collagen I antibody and slot blot analysis.

Question: `CC[C@@H](C(=O)[C@@H](C)[C@@H](O)[C@H](C)[C@@H]1O[C@@H]([C@@H](CC)C(=O)O)CC[C@@H]1C)[C@H]1O[C@]2(C=C[C@@H](O)[C@]3(CC[C@@](C)([C@H]4CC[C@](O)(CC)[C@H](C)O4)O3)O2)[C@H](C)C[C@@H]1C` [salinomycin] was tested. Which “α-SMA and calponin expression in human fibroblasts” value ([1]; FIG. 14 lanes: PPT 1, 5 uM, BTS, ASC, AXD 0.1, 1 uM, SNC 100 nM, 1 uM) did it give?
Answer: inhibit β-dependent α-SMA and calponin expression

Question: What about the “expression of Thy1” value ([1]; both doses, 100 nM and 1 μM) of the same molecule?
Answer: inhibits expression of Thy1

Question: What about the “TGFβ-dependent αSMA and calponin (marker) expression” value ([1]; lower dose, 100 nM) of the same molecule?
Answer: effective even at the lower dose

Question: And the “myofibroblast formation / phenotype” value ([1]; lowest effective dose from secondary screen: PPT 5 μM, ASC, BTS, AXD 1 μM, SNC 0.1 μM, TGFβ 1 ng/ml, 72 hours)?
Answer: inhibit myofibroblast phenotype

Question: And the “formation of myofibroblasts (cell images)” value [2]?
Answer: not in samples treated with HCPT or SNC; also recorded: not in samples with HCPT or salinomycin (SNC)

Question: And the “inhibition of TGFβ-induced luciferase activity, initial screen” value [3]?
Answer: blocked TGFβ-induced luciferase activity; also recorded: particularly potent at inhibiting luciferase activity

Question: What about the collagen production ([4]; 10 nM) of the same molecule?
Answer: decreases

Question: What about the collagen production ([4]; 100 nM) of the same molecule?
Answer: at baseline levels

Question: And the collagen production ([4]; 250 nM)?
Answer: below baseline levels

Question: What about the “collagen I levels, dose dependence” value ([4]; 10-250 nM) of the same molecule?
Answer: dose-dependent manner
